Data published in PubChem BioAssay AID1745844 (Carcinogenic Potency Database (CPDB), 2022).
Calls of active or inactive are those of the source. How the calls were made is not given here.

Test system: rodent lifetime carcinogenesis bioassay, tumor incidence TD50
Test: carcinogenic potency in animals, long-term in vivo studies, CPDB compilation (AID 1745844)
Settings: in feed

SMILES: CCn1cc(C(=O)O)c(=O)c2ccc(C)nc21
- TD50 (mouse, strain B6C3F1, females, site: adrenal medulla, lesion: pheochromocytoma, dosed 103 weeks, study length 104 weeks): 3630 mg/kg/day (inactive)
- TD50 (mouse, strain B6C3F1, females, site: any site (literature study), lesion: several types, types named in the paper, dosed 103 weeks, study length 104 weeks): 1690 mg/kg/day
- TD50 (mouse, strain B6C3F1, females, site: liver, lesion: hepatocellular adenoma + hepatocellular carcinoma + neoplastic nodule, dosed 103 weeks, study length 104 weeks): 3160 mg/kg/day
- TD50 (mouse, strain B6C3F1, females, site: lung, lesion: alveolar/bronchiolar adenoma + alveolar/bronchiolar carcinoma, dosed 103 weeks, study length 104 weeks): 4900 mg/kg/day
- TD50 (mouse, strain B6C3F1, males, site: any site (literature study), lesion: several types, types named in the paper, dosed 103 weeks, study length 104 weeks): 1330 mg/kg/day
- TD50 (mouse, strain B6C3F1, males, site: lung, lesion: alveolar/bronchiolar adenoma + alveolar/bronchiolar carcinoma, dosed 103 weeks, study length 104 weeks): 4600 mg/kg/day
- TD50 (mouse, strain B6C3F1, males, site: subcutaneous tissue, lesion: fibrosarcoma + fibroma, dosed 103 weeks, study length 104 weeks): 1210 mg/kg/day
- carcinogen call (mouse, strain CDF1, females, site: any site (literature study), lesion: one or several types, types not named, dosed 76 weeks, study length 85 weeks): negative (inactive)
- TD50 (mouse, strain CDF1, females, site: liver, lesion: hepatocellular adenoma, dosed 76 weeks, study length 85 weeks): 6450 mg/kg/day (inactive)
- TD50 (mouse, strain CDF1, females, site: lung, lesion: adenocarcinoma, dosed 76 weeks, study length 85 weeks): 1770 mg/kg/day (inactive)
- carcinogen call (mouse, strain CDF1, females, site: lung, lesion: several types, types named in the paper, dosed 76 weeks, study length 85 weeks): negative (inactive)
- carcinogen call (mouse, strain CDF1, males, site: any site (literature study), lesion: one or several types, types not named, dosed 76 weeks, study length 85 weeks): negative (inactive)
- carcinogen call (mouse, strain CDF1, males, site: liver, lesion: hepatocellular adenoma, dosed 76 weeks, study length 85 weeks): negative (inactive)
- TD50 (mouse, strain CDF1, males, site: liver, lesion: hepatocellular carcinoma, dosed 76 weeks, study length 85 weeks): 1940 mg/kg/day (inactive)
- TD50 (mouse, strain CDF1, males, site: liver, lesion: several types, types named in the paper, dosed 76 weeks, study length 85 weeks): 3100 mg/kg/day (inactive)
- TD50 (mouse, strain CDF1, males, site: lung, lesion: adenocarcinoma, dosed 76 weeks, study length 85 weeks): 3980 mg/kg/day (inactive)
- carcinogen call (mouse, strain CDF1, males, site: lung, lesion: several types, types named in the paper, dosed 76 weeks, study length 85 weeks): negative (inactive)
- TD50 (rat, strain Fischer 344, females, site: clitoral gland, lesion: adenoma, NOS + carcinoma, NOS + papillary carcinoma + papilloma, NOS, dosed 103 weeks, study length 104 weeks): 372 mg/kg/day
- TD50 (rat, strain Fischer 344, males, site: any site (literature study), lesion: several types, types named in the paper, dosed 103 weeks, study length 104 weeks): 7600 mg/kg/day
- TD50 (rat, strain Fischer 344, males, site: preputial gland, lesion: adenoma, NOS + carcinoma, NOS + papilloma, NOS, dosed 103 weeks, study length 104 weeks): 138 mg/kg/day
- TD50 (rat, strain Fischer 344, males, site: preputial gland, lesion: adenoma, NOS + papilloma, NOS, dosed 103 weeks, study length 104 weeks): 358 mg/kg/day
- TD50 (rat, strain Fischer 344, males, site: preputial gland, lesion: adenoma, NOS, dosed 103 weeks, study length 104 weeks): 301 mg/kg/day
- TD50 (rat, strain Fischer 344, males, site: preputial gland, lesion: carcinoma, NOS, dosed 103 weeks, study length 104 weeks): 211 mg/kg/day
